According to patent US20250092016A1, “COMPOUNDS AND COMPOSITIONS FOR THE TREATMENT OF CORONAVIRAL RELATED DISEASES” (priority 2021, published 2025):
Where two headings read alike, the source gives them in different places.

Target: SARS-CoV-2 main protease (M^pro) (Severe acute respiratory syndrome coronavirus 2, UniProt P0DTD1)
Test: Rapid-Fire MS Biochemical Assay measuring Mpro activity (5 nM Mpro)
Conditions: Mpro inhibition, 5 μM substrate peptide, 120 min
[1] = Table 1B, read-out: Rapid-Fire Assay IC50

Row | SMILES | IC50 [1] [nM] | IC50 (Rapid-Fire Assay IC50, Table 1B) [nM]
1 | N#C[C@@H]1CN(c2ccc(C(F)(F)F)cc2)C(=O)N1c1cncc2ccccc12 (single isomer, unassigned) [Compound 99b] | 200 to 1000 | –
2 | N#Cc1cc(Cl)ccc1N1C[C@H](C#N)N(c2cncc3ccccc23)C1=O (single isomer, unassigned) [Compound 60a] | < 20 | –
3 | N#Cc1cc(C(F)(F)F)ncc1N1C[C@H](C#N)N(c2cncc3ccccc23)C1=O (single isomer, unassigned) [Compound 18a] | < 20 | –
4 | COc1ccc(N2C[C@@H](C#N)N(c3cncc4ccccc34)C2=O)cn1 (single isomer, unassigned) [Compound 112b] | > 1000 | –
5 | Cc1ccc(Cl)cc1N1C[C@H](C#N)N(c2cncc3ccccc23)C1=O (single isomer, unassigned) [Compound 114a] | < 20 | –
6 | Cc1ccc(OC(F)F)cc1N1C[C@H](C#N)N(c2cncc3ccccc23)C1=O (single isomer, unassigned) [Compound 101a] | < 20 | –
7 | CC(C)n1cc(N2C[C@H](C#N)N(c3cncc4ccccc34)C2=O)cn1 (single isomer, unassigned) [Compound 64a] | < 20 | –
8 | N#C[C@@H]1CN(c2ccc(Cl)cn2)C(=O)N1c1cncc2ccccc12 (single isomer, unassigned) [Compound 41b] | 200 to 1000 | –
9 | N#C[C@@H]1CN(c2cccc(Cl)n2)C(=O)N1c1cncc2ccccc12 (single isomer, unassigned) [Compound 111b] | 200 to 1000 | –
10 | N#C[C@H]1CN(c2cccc3cn[nH]c23)C(=O)N1c1cncc2ccccc12 (single isomer, unassigned) [Compound 63a] | < 20 | –
11 | N#C[C@H]1CN([C@@H]2CCN(CCC(F)(F)F)C2)C(=O)N1c1cncc2ccccc12 (single isomer, unassigned) [Compound 26a] | 200 to 1000 | –
12 | N#C[C@@H]1CN(c2cccc(F)n2)C(=O)N1c1cncc2ccccc12 (single isomer, unassigned) [Compound 61b] | > 1000 | –
13 | COc1cnc(C(F)(F)F)nc1N1C[C@H](C#N)N(c2cncc3ccccc23)C1=O (single isomer, unassigned) [Compound 31a] | 20 to 200 | –
14 | N#C[C@H]1CN(c2ccc(OC(F)(F)F)cc2)C(=O)N1c1cncc2ccccc12 (single isomer, unassigned) [Compound 91a] | < 20 | –
15 | Cc1ncccc1N1C[C@H](C#N)N(c2cncc3ccccc23)C1=O (single isomer, unassigned) [Compound 74a] | 200 to 1000 | –
16 | COc1cc(C(F)(F)F)ccc1N1C[C@@H](C#N)N(c2cncc3ccccc23)C1=O (single isomer, unassigned) [Compound 12b] | > 1000 | –
17 | N#CC1CN(C2CCC(F)CC2)C(=O)N1c1cncc2ccccc12 (single isomer, unassigned) [Compound 121d] | > 1000 | –
18 | N#C[C@H]1CN(c2cccc(F)n2)C(=O)N1c1cncc2ccccc12 (single isomer, unassigned) [Compound 61a] | 20 to 200 | –
19 | N#Cc1ccc(Cl)cc1N1CC(C#N)N(c2cncc3ccccc23)C1=O (racemic) [Compound 20, 1-(5-chloro-2-cyanophenyl)-3-(isoquinolin-4-yl)-2-oxoimidazolidine-4-carbonitrile] | < 20 | –

Row | SMILES | IC50 [1] [nM] | IC50 (Rapid-Fire Assay IC50, Table 1B) [nM]
20 | N#CC1CN(c2ccnc(C(F)(F)F)c2)C(=O)N1c1cncc2ccccc12 (racemic) [Compound 57, 3-(isoquinolin-4-yl)-2-oxo-1-(2-(trifluoromethyl)pyridin-4-yl)imidazolidine-4-carbonitrile] | < 20 | –
21 | N#C[C@@H]1CN(c2cc(OC(F)F)ccc2F)C(=O)N1c1cncc2ccccc12 (single isomer, unassigned) [Compound 59b] | > 1000 | –
22 | COc1cc(Cl)ccc1N1C[C@@H](C#N)N(c2cncc3ccccc23)C1=O (single isomer, unassigned) [Compound 103b] | > 1000 | –
23 | N#Cc1cc(Cl)ccc1N1C[C@@H](C#N)N(c2cncc3ccccc23)C1=O (single isomer, unassigned) [Compound 60b] | 200 to 1000 | –
24 | N#C[C@@H]1CN(c2ccc(C(F)F)nc2)C(=O)N1c1cncc2ccccc12 (single isomer, unassigned) [Compound 75b] | > 1000 | –
25 | N#C[C@@H]1CN(c2cccc(C(F)(F)F)n2)C(=O)N1c1cncc2ccccc12 (single isomer, unassigned) [Compound 51b] | > 1000 | –
26 | N#CC1CN(c2cccc(Cl)c2)C(=O)N1c1cncc2ccc(C(=O)O)cc12 (racemic) [Compound 33, 4-(3-(3-chlorophenyl)-5-cyano-2-oxoimidazolidin-1-yl)isoquinoline-6-carboxylic acid] | < 20 | –
27 | CC(C)n1cc(N2C[C@@H](C#N)N(c3cncc4ccccc34)C2=O)cn1 (single isomer, unassigned) [Compound 64b] | > 1000 | –
28 | N#Cc1cnc(C(F)(F)F)cc1N1C[C@H](C#N)N(c2cncc3ccccc23)C1=O (single isomer, unassigned) [Compound 117a] | < 20 | –
29 | N#CC1CN(C2CCCC(F)(F)C2)C(=O)N1c1cncc2ccccc12 (stereo not drawn) [Compound 29, 1-(3,3-difluorocyclohexyl)-3-(isoquinolin-4-yl)-2-oxoimidazolidine-4-carbonitrile] | 20 to 200 | –
30 | N#C[C@@H]1CN(c2ncc(C(F)(F)F)cn2)C(=O)N1c1cncc2ccccc12 (single isomer, unassigned) [Compound 42b] | > 1000 | –
31 | N#C[C@@H]1CN(C2CN(S(=O)(=O)C3CC3)C2)C(=O)N1c1cncc2ccccc12 (single isomer, unassigned) [Compound 131b] | – | > 1000
32 | N#C[C@H]1CN(c2cc(F)cc(F)c2)C(=O)N1c1cncc2ccccc12 (single isomer, unassigned) [Compound 110a] | < 20 | –
33 | N#C[C@@H]1CN(C2CN(S(=O)(=O)C(F)(F)F)C2)C(=O)N1c1cncc2ccccc12 (single isomer, unassigned) [Compound 129b] | > 1000 | –
34 | N#C[C@@H]1CN([C@H]2CC[C@H](F)CC2)C(=O)N1c1cncc2ccccc12 [Compound 121c, (S)-1-((1 r,4S)-4-fluorocyclohexyl)-3-(isoquinolin-4-yl)-2-oxoimidazolidine-4-carbonitrile] | > 1000 | –
35 | N#C[C@H]1CN(c2ncc(C(F)(F)F)cn2)C(=O)N1c1cncc2ccccc12 (single isomer, unassigned) [Compound 42a] | < 20 | –
36 | Cn1ccc(N2C[C@H](C#N)N(c3cncc4ccccc34)C2=O)cc1=O (single isomer, unassigned) [Compound 67a] | 20 to 200 | –
37 | COc1ccc(C(F)(F)F)cc1N1C[C@@H](C#N)N(c2cncc3ccccc23)C1=O (single isomer, unassigned) [Compound 17b] | > 1000 | –
38 | COc1nc(C(F)(F)F)ccc1N1C[C@@H](C#N)N(c2cncc3ccccc23)C1=O (single isomer, unassigned) [Compound 95b] | > 1000 | –

Row | SMILES | IC50 [1] [nM] | IC50 (Rapid-Fire Assay IC50, Table 1B) [nM]
39 | CC1(C)CC(N2C[C@H](C#N)N(c3cncc4ccccc34)C2=O)C1 (single isomer, unassigned) [Compound 126a] | < 20 | –
40 | CS(=O)(=O)c1ccc2cncc(N3C(=O)N(c4ccc(F)c(F)c4)C[C@@H]3C#N)c2c1 (single isomer, unassigned) [Compound 85a] | < 20 | –
41 | COc1cc(C(F)(F)F)ccc1N1C[C@H](C#N)N(c2cncc3ccccc23)C1=O (single isomer, unassigned) [Compound 12a] | < 20 | –
42 | CS(=O)(=O)N1CC(N2C[C@H](C#N)N(c3cncc4ccccc34)C2=O)C1 (single isomer, unassigned) [Compound 130a] | 200 to 1000 | –
43 | Cc1ncc(C(F)(F)F)cc1N1C[C@@H](C#N)N(c2cncc3ccccc23)C1=O (single isomer, unassigned) [Compound 88b] | > 1000 | –
44 | Cc1ccc(OC(F)F)cc1N1C[C@@H](C#N)N(c2cncc3ccccc23)C1=O (single isomer, unassigned) [Compound 101b] | > 1000 | –
45 | COc1ccc(F)cc1N1C[C@H](C#N)N(c2cncc3ccccc23)C1=O (single isomer, unassigned) [Compound 105a] | < 20 | –
46 | COc1ncc(C(F)(F)F)cc1N1C[C@H](C#N)N(c2cncc3ccccc23)C1=O (single isomer, unassigned) [Compound 100a] | < 20 | –
47 | N#Cc1cccc(N2C[C@@H](C#N)N(c3cncc4ccccc34)C2=O)c1 (single isomer, unassigned) [Compound 52b] | 200 to 1000 | –
48 | N#C[C@H]1CN(C2CC3(CC3)C2)C(=O)N1c1cncc2ccccc12 (single isomer, unassigned) [Compound 125a] | < 20 | –
49 | Cc1c[nH]c(N2C[C@H](C#N)N(c3cncc4ccccc34)C2=O)n1 (single isomer, unassigned) [Compound 118a] | 200 to 1000 | –
50 | N#C[C@@H]1CN(c2ccc(C(F)(F)F)nn2)C(=O)N1c1cncc2ccccc12 (single isomer, unassigned) [Compound 81b] | > 1000 | –
51 | N#C[C@@H]1CN(c2ncc(Cl)cn2)C(=O)N1c1cncc2ccccc12 (single isomer, unassigned) [Compound 16b] | 200 to 1000 | –
52 | N#C[C@H]1CN(c2nccc(C(F)(F)F)n2)C(=O)N1c1cncc2ccccc12 (single isomer, unassigned) [Compound 49a] | 20 to 200 | –
53 | CS(=O)(=O)c1ccc2cncc(N3C(=O)N(c4cccc(Cl)c4)C[C@H]3C#N)c2c1 (single isomer, unassigned) [Compound 37b] | > 1000 | –
54 | CC(C)[C@H]1C[C@@H](N2C[C@@H](C#N)N(c3cncc4ccccc34)C2=O)C1 [Compound 123c, (S)-1-((1s,3R)-3-isopropylcyclobutyl)-3-(isoquinolin-4-yl)-2-oxoimidazolidine-4-carbonitrile] | > 1000 | –
55 | N#C[C@H]1CN(c2ccc(C(F)F)cn2)C(=O)N1c1cncc2ccccc12 (single isomer, unassigned) [Compound 78a] | < 20 | –
56 | CC(C)c1ccc(N2C[C@@H](C#N)N(c3cncc4ccccc34)C2=O)cn1 (single isomer, unassigned) [Compound 94b] | > 1000 | –
57 | N#C[C@H]1CN(c2cccc(Cl)n2)C(=O)N1c1cncc2ccccc12 (single isomer, unassigned) [Compound 111a] | < 20 | –
